Values quoted from earlier work as cited in paper PMC11373361, “Expanding the inhibitor space of the WWP1 and WWP2 HECT E3 ligases” (Journal of Enzyme Inhibition and Medicinal Chemistry, 2024).

How the values were obtained:
WWP1 = test system: WWP1; parameters: method as in PMID 31097636; details: cited from earlier work
WWP2 = test system: WWP2; parameters: method as in PMID 30207403; details: cited from earlier work

SMILES	IC50 (WWP1)	IC50 (WWP2)
CCc1ccc(C=CC(=O)Nc2ccc(C(C)=O)cc2)o1 [Heclin]	6.9 µM	
COCCn1c2nc(=O)n(-c3ccccc3)c(=O)c-2nc2ccccc21 [NSC-288387]		2.3 µM
